Experimental data taken from article PMC3541179, “Structural Insights into the Dual Strategy of Recognition by Peptidoglycan Recognition Protein, PGRP-S: Structure of the Ternary Complex of PGRP-S with Lipopolysaccharide and Stearic Acid” (PLoS ONE, 2013).

Molecular target: T1, CPGRP-S (camel short peptidoglycan recognition protein, PGRP-S) (Camelus dromedarius, UniProt Q9GK12)
T1 construct: gene PGLYRP1; native, purified from camel milk; full mature chain, residues 1-171, about 19-20 kDa; A-B and C-D contacts forming a linear polymer, 4 molecules in the asymmetric unit
T1 sequence (Q9GK12 23-193): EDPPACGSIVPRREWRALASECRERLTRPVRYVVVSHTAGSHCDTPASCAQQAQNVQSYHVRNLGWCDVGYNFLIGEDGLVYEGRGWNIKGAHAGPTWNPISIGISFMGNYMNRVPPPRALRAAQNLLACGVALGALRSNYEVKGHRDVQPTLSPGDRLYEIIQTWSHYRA
Assay: X-ray crystallography (soaked crystals, […] A); SPR on immobilized protein also shows binding
Conditions: ternary complex with LPS at Site-1 (C-D contact); SA at Site-2 (A-B contact); crystals soaked in 70% reservoir solution and 30% ethanol
Excerpt: (camel short peptidoglycan recognition protein, PGRP-S) | SA is placed in the cleft at the A-B contact

**Q.** Which “X-ray crystallography (soaked crystals, 2.8 A); SPR on immobilized protein also” value does the source give for `CCCCCCCCCCCCCCCCCC(=O)O` [SA, stearic acid] here?
**A.** SA is placed in the cleft at the A–B contact
